Source: patent publication US8865122B2, “Methods and compositions for protein labelling” (Genentech, Inc., priority 2009, dated 2014)

What was measured:
Hsp90 = Hsp90 targeted therapy (17-AAG) treatment response monitored by microPET; assay type: in vivo, Beige nude XID mice
Experimental: Hsp90 targeted therapy and microPET imaging. Mice were distributed into two groups (n=4) according to tumor uptake and volume as determined by ^18F-4D5ThioFab one day prior to 17-AAG treatment (Gill et al (2009) Jour. Med. Chem. 52(19):5816-5825). 17-AAG was administered to the treated group at day 0, while the control group animals were left untreated. PET imaging with ^18F-4D5ThioFab was performed at day 1 (fourteen hours after the administration of the last 17-AAG dose), day 5, and day 7. Coronal slices through the tumor of control animals and animals treated with 17-AAG one day before and one day after therapy are shown in FIG. 5a. […] The renal clearance of ^18F-4D5ThioFab was predominant with significant accumulation of radioactivity in the bladder and high uptake in the renal cortex (Table 3). The hepatobiliary route also contributed to tracer excretion leading to accumulation of radioactive metabolites in the large intestine and gall bladder while the retention of radioactivity in the liver was relatively low. […]
Mice were anesthetized with 3% sevoflurane and inoculated i.v. via the tail vein catheter with 0.3-0.4 mCi of ^18F-Thio4D5Fab in isotonic solution (50-100 μL). […] Body temperature was measured by a rectal probe and maintained by warm air. […]

HER2 = details: after 17-AAG, BT474 xenograft, cited from earlier work
[1] = lipophilicity (log P) measurement; assay type: physicochemical; details: pH 7.4
Experimental: After SPE treatment, method B provided [^18F] 5 with a yield of 59±4%, a radiochemical purity of 94%, and a specific activity of 5.1±1.5 Ci/μmol (determined against an HPLC standard curve of ^19F-labeled 5) in 47±1 min (n=5). The identity of [^18F] 5 was confirmed by HPLC co-elution with ^19F-labeled standard and by LC/MS analysis of the decayed product. The lipophilicity (log P) of [^18F]5 (−2.41±0.09) was measured at pH 7.4 consistent with published methods (Rodionov et al (2007) J Am Chem Soc 129:12705-12).

[2] = water solubility observation; assay type: physicochemical
Text: 4 or [^18F]FPEG4N3 with methods B and C. […] Therefore, method C may be well suited for general radiochemical application facilitating the development of a consistent radiochemical process for the production of a variety of ^18F-labeled prosthetic groups. This may have strong implications for automation and may eliminate the need for dedicating a synthesis module to a specific prosthetic group, as is the case with [^18F]SFB.

## C=CCNC1=C2C[C@@H](C)C[C@H](OC)[C@H](O)[C@@H](C)/C=C(\C)[C@H](OC(N)=O)[C@@H](OC)/C=C\C=C(/C)C(=O)NC(=CC1=O)C2=O [Compound 17-AAG, 17-(allylamino)-17-demethoxygeldanamycin]
Hsp90; day 1 after 17-AAG (three 50 mg/kg i.p. doses), compared to control group and day −1, BT474M1 xenograft
  reduction in tumor uptake of ^18F-4D5ThioFab: 50%
Hsp90; day 5 after 17-AAG, ^18F-4D5ThioFab tumor uptake
  rebound of HER2 expression: 100%
HER2; ^68Ga-DCHF (Smith-Jones et al)
  return of HER2 to pretreatment levels: 12 days
HER2; imaged with ^68Ga-DCHF (Smith-Jones et al)
  reduction in HER2 levels: 70%

## O=C1C=CC(=O)N1CCOCCOCCOCCOCCOCCOCc1cn(CCOCCOCCOCCOCCOCCOCCOCC[18F])nn1 [[^18F]5]
[1]
  logP: -2.41 ± 0.09

## [N-]=[N+]=NCCOCC[18F] [[^18F]FPEG2N3]
[2]
  water solubility: limited water solubility
